In paper PMC7238130, “Improved Dissolution and Pharmacokinetics of Abiraterone through KinetiSol® Enabled Amorphous Solid Dispersions” (Pharmaceutics, 2020):
Converted amounts (≈) assume the structure as drawn.

What was measured:
[1] = In vitro, non-sink, gastric transfer dissolution (0.01 N HCl then FaSSIF); type: physicochemical
Protocol: An in vitro, non-sink, gastric transfer dissolution method was developed to analyze the dissolution of abiraterone API, the generic abiraterone acetate tablets, the binary KSDs, to select ternary component for KSDs, as well as to analyze the dissolution of the ternary KSDs. For the dissolution analysis of abiraterone API and the binary and ternary KSDs, the samples (equivalent to 31 mg of abiraterone API) were loaded in an Erlenmeyer flask (dissolution vessel) containing 35 mL of 0.01N HCl (pH 2.0), placed in an incubator–shaker (Excella E24 (New Brunswick Scientific, Edison, NJ, USA)) set to 37 °C and a rotational speed of 180 rpm. After 30 min, 35 mL of FaSSIF (prepared in a 50 mM phosphate buffer at pH 6.8) was added to the dissolution vessel. At predetermined time points, samples were drawn from the dissolution vessel and centrifuged using an ultracentrifuge at 92,000 rpm for 90 s (Airfuge™, Beckman, Indianapolis, IN, USA). The supernatants were further diluted using the HPLC diluent and analyzed using the respective HPLC methods mentioned above. For the generic abiraterone acetate tablets, the whole tablet was analyzed, and the dissolution media volumes were scaled accordingly. For the selection of the ternary component, 35 mg of secondary polymer candidates were added in 35 mL of 0.01 N HCl (pH 2.0), and the dissolution of the binary KSD was conducted using the method described above. The area under the drug dissolution curve (AUDC) was calculated using the linear trapezoidal method.
For dissolution testing, we employed a two-stage, non-sink, gastric transfer dissolution method in which the sample is first exposed to acidic media, simulating fasted stomach content, followed by exposure to neutral-to-basic media, simulating fasted intestinal content.

[2] = set-up: method as in doi:10.1021/acs.jced.8b00566; conditions: cited from earlier work
[3] = cited from earlier work; for FaSSIF solubility (converted): conversion of the µM value
[4] = set-up: method as in doi:10.1021/acs.jced.8b00566; conditions: cited from earlier work; remark: listed apart in the source

SMILES	Percent Rel. AUDC0.01 N HCl (Relative to Lot 5 KSD) ([1]; 0.01 N HCl stage, 35 mg secondary polymer added externally where stated)	Percent Rel. AUDCTotal (Relative to Lot 5 KSD) ([1]; 35 mg secondary polymer added externally to 35 mL 0.01 N HCl where stated)	Percent Rel. AUDCFaSSIF (Relative to Lot 5 KSD) ([1]; FaSSIF stage, 35 mg secondary polymer added externally where stated)	solubility ([1]; pH 6.8, FaSSIF stage of gastric transfer dissolution, read-out: average drug concentration (solubility) in FaSSIF media)	water solubility [2]	FaSSIF solubility [3]	FaSSIF solubility (converted) [3]	BCS (Biopharmaceutical Classification System) class [4]	permeability [4]
C[C@]12CC[C@H](O)CC1=CC[C@@H]1[C@@H]2CC[C@]2(C)C(c3cccnc3)=CC[C@@H]12 [Abiraterone API, Abiraterone]	1.8%	8.4%	46.2%	0.0113 mg/mL (≈ 32.4 µM)	0.00305 mg/mL (≈ 8.73 µM)	12.7 ± 4.2 µM	~ 4.43 µg/mL	Class IV	low
CC(=O)O[C@H]1CC[C@@]2(C)C(=CC[C@@H]3[C@@H]2CC[C@]2(C)C(c4cccnc4)=CC[C@@H]32)C1 [abiraterone acetate, Abiraterone acetate]						64.6 ± 5.2 µM	~ 25.29 µg/mL		
